Patent US20070003585A1, “Topical skin treating compositions” (STIEFEL LABORATORIES, INC., priority 2005, published 2007)
Where two headings read alike, the source gives them in different places.

How the values were obtained:
[1] = Storage stability of composition containing 2.15% of benzoyl peroxide, […] of tazarotene, and […] of clindamycin (Example 8); assay type: physicochemical; details: Example 8 composition, initial 2.15%, 6 months
[2] = Storage stability of composition containing 2.02% of benzoyl peroxide, […] of tazarotene, and […] of clindamycin (Example 9); assay type: physicochemical; details: Example 9 composition, initial 2.02%
[3] = Storage stability of composition containing 2.02% of benzoyl peroxide and 0.099% of tazarotene (Example 17); assay type: physicochemical; details: Example 17 composition, initial 2.02%
Excerpt: (§1) The results are as follows:

[4] = Storage stability of composition containing 5.18% of benzoyl peroxide and 0.099% of tazarotene (Example 18); assay type: physicochemical; details: Example 18 composition, initial 5.18%
Excerpt: as §1

[5] = Example 6 composition, initial 5.54%
[6] = Example 7 composition, initial 5.22%
[7] = Example 10 composition, initial 1.54%
[8] = Example 11 composition, initial […]
[9] = Example 12 composition, initial […]
[10] = Example 13 composition, initial […]

SMILES: O=C(OOC(=O)c1ccccc1)c1ccccc1 [Benzoyl Peroxide]
- Benzoyl Peroxide (BPO) (as % w/w) ([1]; 6° C.): 2.13 % w/w
- Benzoyl Peroxide (BPO) (as % w/w) ([1]; 25° C.): 2.00 % w/w
- Benzoyl Peroxide (BPO) (as % w/w) ([1]; 30° C.): 2.05 % w/w
- Benzoyl Peroxide (BPO) (as % w/w) ([1]; 40° C.): 1.69 % w/w
- Benzoyl Peroxide (BPO) (as % w/w) ([2]; 6 months, 6° C.): 2.10 % w/w
- Benzoyl Peroxide (BPO) (as % w/w) ([2]; 6 months, 25° C.): 2.00 % w/w
- Benzoyl Peroxide (BPO) (as % w/w) ([2]; 6 months, 30° C.): 1.94 % w/w
- Benzoyl Peroxide (BPO) (as % w/w) ([2]; 6 months, 40° C.): 1.45 % w/w
- Benzoyl Peroxide (BPO) (as % w/w) ([2]; 90 days, 6° C.): 2.02 % w/w
- Benzoyl Peroxide (BPO) (as % w/w) ([2]; 90 days, 25° C.): 1.97 % w/w
- Benzoyl Peroxide (BPO) (as % w/w) ([2]; 90 days, 30° C.): 1.97 % w/w
- Benzoyl Peroxide (BPO) (as % w/w) ([2]; 90 days, 40° C.): 1.73 % w/w
- Benzoyl peroxide (as % w/w) ([3]; 6 months, 6° C.): 2.07 % w/w
- Benzoyl peroxide (as % w/w) ([3]; 6 months, 25° C.): 2.03 % w/w
- Benzoyl peroxide (as % w/w) ([3]; 6 months, 30° C.): 2.05 % w/w
- Benzoyl peroxide (as % w/w) ([3]; 6 months, 40° C.): 1.94 % w/w
- Benzoyl peroxide (as % w/w) ([3]; 90 days, 6° C.): 2.09 % w/w
- Benzoyl peroxide (as % w/w) ([3]; 90 days, 25° C.): 2.06 % w/w
- Benzoyl peroxide (as % w/w) ([3]; 90 days, 30° C.): 2.07 % w/w
- Benzoyl peroxide (as % w/w) ([3]; 90 days, 40° C.): 2.01 % w/w
- Benzoyl peroxide (as % w/w) ([4]; 6 months, 6° C.): 5.2 % w/w
- Benzoyl peroxide (as % w/w) ([4]; 6 months, 25° C.): 5.14 % w/w
- Benzoyl peroxide (as % w/w) ([4]; 6 months, 30° C.): 5.02 % w/w
- Benzoyl peroxide (as % w/w) ([4]; 6 months, 40° C.): 4.81 % w/w
- Benzoyl peroxide (as % w/w) ([4]; 90 days, 6° C.): 5.25 % w/w
- Benzoyl peroxide (as % w/w) ([4]; 90 days, 25° C.): 5.23 % w/w
- Benzoyl peroxide (as % w/w) ([4]; 90 days, 30° C.): 5.30 % w/w
- Benzoyl peroxide (as % w/w) ([4]; 90 days, 40° C.): 5.16 % w/w
- Benzoyl Peroxide (BPO) (as % w/w) ([5]; 2 weeks, 25° C.): 5.43 % w/w
- Benzoyl Peroxide (BPO) (as % w/w) ([5]; 2 weeks, 30° C.): 5.35 % w/w
- Benzoyl Peroxide (BPO) (as % w/w) ([5]; 2 weeks, 40° C.): 5.34 % w/w
- Benzoyl Peroxide (BPO) (as % w/w) ([5]; 90 days, 6° C.): 5.48 % w/w
- Benzoyl Peroxide (BPO) (as % w/w) ([5]; 90 days, 25° C.): 5.34 % w/w
- Benzoyl Peroxide (BPO) (as % w/w) ([5]; 90 days, 30° C.): 5.33 % w/w
- Benzoyl Peroxide (BPO) (as % w/w) ([5]; 90 days, 40° C.): 5.19 % w/w
- Benzoyl Peroxide (BPO) (as % w/w) ([6]; 2 weeks, 6° C.): 5.22 % w/w
- Benzoyl Peroxide (BPO) (as % w/w) ([6]; 2 weeks, 25° C.): 5.24 % w/w
- Benzoyl Peroxide (BPO) (as % w/w) ([6]; 2 weeks, 30° C.): 5.23 % w/w
- Benzoyl Peroxide (BPO) (as % w/w) ([6]; 2 weeks, 40° C.): 5.12 % w/w
- Benzoyl Peroxide (BPO) (as % w/w) ([6]; 6 months, 6° C.): 5.16 % w/w
- Benzoyl Peroxide (BPO) (as % w/w) ([6]; 6 months, 25° C.): 4.80 % w/w
- Benzoyl Peroxide (BPO) (as % w/w) ([6]; 6 months, 30° C.): 4.91 % w/w
- Benzoyl Peroxide (BPO) (as % w/w) ([6]; 6 months, 40° C.): 4.59 % w/w
- Benzoyl Peroxide (BPO) (as % w/w) ([7]; 6 months, 6° C.): 1.50 % w/w
- Benzoyl Peroxide (BPO) (as % w/w) ([7]; 6 months, 25° C.): 1.40 % w/w
- Benzoyl Peroxide (BPO) (as % w/w) ([7]; 6 months, 30° C.): 1.40 % w/w
- Benzoyl Peroxide (BPO) (as % w/w) ([7]; 6 months, 40° C.): 1.03 % w/w
- Benzoyl Peroxide (BPO) (as % w/w) ([7]; 90 days, 6° C.): 1.50 % w/w
- Benzoyl Peroxide (BPO) (as % w/w) ([7]; 90 days, 25° C.): 1.44 % w/w
- Benzoyl Peroxide (BPO) (as % w/w) ([7]; 90 days, 30° C.): 1.42 % w/w
- Benzoyl Peroxide (BPO) (as % w/w) ([7]; 90 days, 40° C.): 1.28 % w/w
- Benzoyl Peroxide (BPO) (as % w/w) ([8]; 2 weeks, 6° C.): 0.99 % w/w
- Benzoyl Peroxide (BPO) (as % w/w) ([8]; 2 weeks, 25° C.): 0.95 % w/w
- Benzoyl Peroxide (BPO) (as % w/w) ([8]; 2 weeks, 40° C.): 0.94 % w/w
- Benzoyl Peroxide (BPO) (as % w/w) ([8]; 6 months, 6° C.): 0.99 % w/w
- Benzoyl Peroxide (BPO) (as % w/w) ([8]; 6 months, 25° C.): 0.91 % w/w
- Benzoyl Peroxide (BPO) (as % w/w) ([8]; 6 months, 40° C.): 0.35 % w/w
- Benzoyl Peroxide (BPO) (as % w/w) ([8]; 30 days, 6° C.): 0.98 % w/w
- Benzoyl Peroxide (BPO) (as % w/w) ([8]; 30 days, 25° C.): 0.95 % w/w
- Benzoyl Peroxide (BPO) (as % w/w) ([8]; 30 days, 40° C.): 0.90 % w/w
- Benzoyl Peroxide (BPO) (as % w/w) ([8]; 90 days, 6° C.): 0.99 % w/w
- Benzoyl Peroxide (BPO) (as % w/w) ([8]; 90 days, 25° C.): 0.93 % w/w
- Benzoyl Peroxide (BPO) (as % w/w) ([8]; 90 days, 40° C.): 0.69 % w/w
- Benzoyl Peroxide (BPO) (as % w/w) ([9]; 2 weeks, 6° C.): 0.99 % w/w
- Benzoyl Peroxide (BPO) (as % w/w) ([9]; 2 weeks, 25° C.): 0.97 % w/w
- Benzoyl Peroxide (BPO) (as % w/w) ([9]; 2 weeks, 30° C.): 0.97 % w/w
- Benzoyl Peroxide (BPO) (as % w/w) ([9]; 2 weeks, 40° C.): 0.94 % w/w
- Benzoyl Peroxide (BPO) (as % w/w) ([9]; 6 months, 6° C.): 1.01 % w/w
- Benzoyl Peroxide (BPO) (as % w/w) ([9]; 6 months, 25° C.): 0.95 % w/w
- Benzoyl Peroxide (BPO) (as % w/w) ([9]; 6 months, 30° C.): 0.92 % w/w
- Benzoyl Peroxide (BPO) (as % w/w) ([9]; 6 months, 40° C.): 0.40 % w/w
- Benzoyl Peroxide (BPO) (as % w/w) ([9]; 90 days, 6° C.): 1.00 % w/w
- Benzoyl Peroxide (BPO) (as % w/w) ([9]; 90 days, 25° C.): 0.94 % w/w
- Benzoyl Peroxide (BPO) (as % w/w) ([9]; 90 days, 30° C.): 0.93 % w/w
- Benzoyl Peroxide (BPO) (as % w/w) ([9]; 90 days, 40° C.): 0.73 % w/w
- Benzoyl Peroxide (BPO) (as % w/w) ([10]; 2 weeks, 6° C.): 0.99 % w/w
- Benzoyl Peroxide (BPO) (as % w/w) ([10]; 2 weeks, 25° C.): 0.98 % w/w
- Benzoyl Peroxide (BPO) (as % w/w) ([10]; 2 weeks, 30° C.): 0.98 % w/w
- Benzoyl Peroxide (BPO) (as % w/w) ([10]; 2 weeks, 40° C.): 0.96 % w/w
- Benzoyl Peroxide (BPO) (as % w/w) ([10]; 6 months, 6° C.): 1.02 % w/w
- Benzoyl Peroxide (BPO) (as % w/w) ([10]; 6 months, 25° C.): 0.96 % w/w
- Benzoyl Peroxide (BPO) (as % w/w) ([10]; 6 months, 30° C.): 0.91 % w/w
- Benzoyl Peroxide (BPO) (as % w/w) ([10]; 6 months, 40° C.): 0.40 % w/w
- Benzoyl Peroxide (BPO) (as % w/w) ([10]; 90 days, 6° C.): 1.02 % w/w
- Benzoyl Peroxide (BPO) (as % w/w) ([10]; 90 days, 25° C.): 0.99 % w/w
- Benzoyl Peroxide (BPO) (as % w/w) ([10]; 90 days, 30° C.): 0.95 % w/w
- Benzoyl Peroxide (BPO) (as % w/w) ([10]; 90 days, 40° C.): 0.73 % w/w
